The conditions of data set [1]: 303.15 K, 101 kPa, Liquid; for speed of sound: Frequency=1 MHz.
Data set [2] can be described thus: xn = mol fraction of the nth substance listed. To be noted: 303.15 K, 101 kPa, Liquid; for speed of sound: Frequency=1 MHz.

The structures appear in SMILES notation. ± gives the expanded uncertainty stated by the source.

For `CCCCOC(C)=O` [butyl ethanoate], in data set [1], the mass density (in general, mass per unit of volume) was determined as 871.07 ± 0.94 kg/m3; the viscosity (usually the internal friction of a fluid under shear) stood at 0.638 ± 0.015 mPa·s; the speed of sound (commonly how fast a sound wave travels through the sample) came to 1170 ± 6 m/s.

On to `CCCCOC(C)=O` [butyl ethanoate] + ClC=C(Cl)Cl, for which, in data set [2] (x2 = 0), the speed of sound came to 1170 ± 6 m/s, the mass density worked out at 871.07 ± 0.94 kg/m3 and the viscosity was determined as 0.638 ± 0.015 mPa·s.

Take `CCOC(C)=O` [ethyl acetate]: in data set [1], the mass density is on record as 888.75 ± 0.46 kg/m3, the viscosity came out at 0.424 ± 0.01 mPa·s and the speed of sound is recorded as 1126 ± 5 m/s.

For the molecule `CCOC(C)=O` [ethyl acetate] + ClC=C(Cl)Cl, in data set [2] (x2 = 0), the speed of sound was 1126 ± 5 m/s, the mass density is 888.75 ± 0.46 kg/m3 and the viscosity was 0.424 ± 0.01 mPa·s.

As to `CCCOC(C)=O` [propyl ethanoate], in data set [1], the mass density is 876.55 ± 0.94 kg/m3, the viscosity was 0.547 ± 0.013 mPa·s and the speed of sound was 1148 ± 6 m/s.

On to `CCCOC(C)=O` [propyl ethanoate] + ClC=C(Cl)Cl, for which, in data set [2] (x2 = 0), the speed of sound was determined as 1148 ± 6 m/s, the mass density is recorded as 876.55 ± 0.94 kg/m3 and the viscosity is given as 0.547 ± 0.013 mPa·s.

Consider `ClC=C(Cl)Cl` [trichloroethene], for which, in data set [1], the mass density was found to be 1450.9 ± 2.5 kg/m3, the viscosity amounted to 0.589 ± 0.014 mPa·s and the speed of sound is 1016 ± 5 m/s.

Regarding `ClC=C(Cl)Cl` [trichloroethene] + CCCCOC(C)=O, the speed of sound in data set [2] (x1 = 0.1739) worked out at 1145 ± 6 m/s; in data set [2] (x1 = 0.25), 1135 ± 6 m/s; in data set [2] (x1 = 0.3658), 1115 ± 6 m/s; in data set [2] (x1 = 0.4722), 1097 ± 5 m/s; in data set [2] (x1 = 0.5724), 1080 ± 5 m/s; in data set [2] (x1 = 0.6942) it was 1060 ± 5 m/s. Moreover, the speed of sound is listed as 1047 ± 5 m/s in data set [2] (x1 = 0.7761), 1027 ± 5 m/s in data set [2] (x1 = 0.9126) and 1016 ± 5 m/s in data set [2] (x1 = 1). Also, the mass density in data set [2] (x1 = 0.1739) is given as 944.38 ± 0.93 kg/m3; in data set [2] (x1 = 0.25) it was 979.14 ± 0.94 kg/m3; in data set [2] (x1 = 0.3658) it was 1035.81 ± 1.1 kg/m3; in data set [2] (x1 = 0.4722), 1092.05 ± 1.3 kg/m3; in data set [2] (x1 = 0.5724) it was 1149.11 ± 1.4 kg/m3; in data set [2] (x1 = 0.6942), 1224.71 ± 1.7 kg/m3. Further, the mass density in data set [2] (x1 = 0.7761) worked out at 1279.91 ± 1.9 kg/m3; in data set [2] (x1 = 0.9126) it was 1380.34 ± 2.3 kg/m3; in data set [2] (x1 = 1) it was 1450.9 ± 2.5 kg/m3. Also, the viscosity in data set [2] (x1 = 0.1739) amounted to 0.66 ± 0.015 mPa·s; in data set [2] (x1 = 0.25), 0.665 ± 0.015 mPa·s; in data set [2] (x1 = 0.3658), 0.67 ± 0.015 mPa·s; in data set [2] (x1 = 0.4722) it was 0.666 ± 0.015 mPa·s; in data set [2] (x1 = 0.5724), 0.666 ± 0.015 mPa·s; in data set [2] (x1 = 0.6942), 0.654 ± 0.015 mPa·s. The viscosity in data set [2] (x1 = 0.7761) is listed as 0.644 ± 0.015 mPa·s; in data set [2] (x1 = 0.9126), 0.62 ± 0.014 mPa·s; in data set [2] (x1 = 1) it was 0.589 ± 0.014 mPa·s.

For the origin of these results see the NIST ThermoML archive (doi:10.1007/s10765-015-1927-y).
